Source: US4704462A, “Substituted 2,3,3a,6-tetrahydro-6-oxobenzofuran derivative useful as PAF antagonist” (Merck & Co., Inc., priority 1985, dated 1987)

What was measured:
[1] = molecular target: T1, PAF Receptor (Oryctolagus cuniculus, UniProt G1TEI7); assay: % Inhibition of PAF Receptor (published bioassay, Table I); format: binding
T1 construct: from tissue
Excerpt: See. T. Y. Shen et al., Proc. Nat. Acad. Sci., U.S.A., 82, 672 (1985); and S. B. Hwang et al., Biochem., 22, 4756 (1983).
% Inhibition of PAF Receptor by the Compounds of […]

[2] = test system: man; conditions: in man, 0.1 μg per site; cited from earlier work

T1 sequence (G1TEI7 1-342): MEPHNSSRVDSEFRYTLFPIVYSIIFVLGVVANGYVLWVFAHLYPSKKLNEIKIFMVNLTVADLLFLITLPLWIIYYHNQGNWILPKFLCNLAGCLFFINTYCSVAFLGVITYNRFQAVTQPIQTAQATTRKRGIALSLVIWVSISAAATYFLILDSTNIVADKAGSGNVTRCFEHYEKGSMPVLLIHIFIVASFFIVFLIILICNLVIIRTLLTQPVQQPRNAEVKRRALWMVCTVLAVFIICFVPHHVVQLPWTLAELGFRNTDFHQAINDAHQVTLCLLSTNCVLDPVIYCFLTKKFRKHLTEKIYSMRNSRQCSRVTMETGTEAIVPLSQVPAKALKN

Compound: C=CCC1=C[C@]2(OCC)C(=CC1=O)O[C@H](c1ccc(OC)c(OC)c1)[C@@H]2C [(2S,3S,3aR)-5-allyl-2-(3,4-dimethoxyphenyl)-3a-ethoxy-3-methyl-2,3,3a,6-tetrahydro-6-oxo-benzofuran]
- inhibition at 1 µM [1]: 45%
- inhibition at 5 µM [1]: 73%

Compound: 1-O-hexadecyl/octadecyl-2-O-acetyl-sn-glycero-3-phosphorylcholine [PAF]
- inflammatory response to intradermal PAF [2]: biphasic inflammatory response

Compound: CCCC1=C[C@]2(OC)C(=CC1=O)O[C@H](c1ccc(OC)c(OC)c1)[C@@H]2C (single isomer, unassigned)
- inhibition at 1 µM [1]: 31%
- inhibition at 5 µM [1]: 61%

Compound: CCCC1=C[C@@]2(OC)C(=CC1=O)O[C@H](c1ccc(OC)c(OC)c1)[C@@H]2C [(2S,3S,3aS)-2-(3,4-dimethoxyphenyl)-3a-methoxy-3-methyl-5-n-propyl-2,3,3a,6-tetrahydro-6-oxo-benzofuran]
- inhibition at 0.03 µM ([1]; Dose 0.03 μM): 30 to 33%
- inhibition at 0.1 µM ([1]; Dose 0.1 μM): 58 to 59%
- inhibition at 0.3 µM [1]: 73 to 76%
- inhibition at 1 µM [1]: 83 to 89%
- inhibition at 5 µM [1]: 90 to 95%

Compound: C=CCC1=C[C@@]2(OCC)C(=CC1=O)O[C@H](c1ccc(OC)c(OC)c1)[C@@H]2C [(2S,3S,3aS)-5-allyl-2-(3,4-dimethoxyphenyl)-3a-ethoxy-3-methyl-2,3,3a,6-tetrahydro-6-oxo-benzofuran]
- inhibition at 0.3 µM [1]: 42%
- inhibition at 1 µM [1]: 68%

Compound: C=CCC1=C2OC(c3ccc(OC)c(OC)c3)C(C)C2(OC)C=CC1=O (centres unmarked)
- inhibition at 1 µM [1]: 26%
- inhibition at 5 µM [1]: 57%
